Results from patent US20080260726A1, “Organic Compounds” (priority 2005, published 2008).

Experiments:
[1] = tested on: goblet cell formation in HBECs; assay: Goblet cell formation with Compound A in basolateral medium, 45M1 and AB/PAS staining; format: cell-based, human
Description: The siRNA duplexes are transfected into HBECs using […]. Transfection medium is prepared by mixing OPTI-MEM® I reduced serum medium (Invitrogen Corp.), siRNA duplex (5× final concentration) and Lipofectamine 2000™ (5× final concentration), incubating at room temperature for 30 minutes, then diluting 1:5 in antibiotic free differentiation medium (DIFF-AB medium; bronchial epithelial basal medium and Dulbeccos modified eagles medium [50:50] plus bronchial epithelial growth medium SingleQuots [bovine pituitary extract, insulin, hydrocortisone, all-trans retinoic acid, transferrin, epinephrine, tri-iodothyronine and human epidermal growth factor at the recommended concentrations, but no tri-iodothyronine and gentamycin/amphotericin B], all obtained from BioWhittaker) prior to addition to HBECs. For these experiments an abbreviated version of the HBEC model is used in which HBECs are maintained as submerged cultures for 3 days and then transferred to ALI for 6 days. Cells from a passage 2 (P2) stock of HBEC donor 2F1578 are cultured as described in Atherton et al. Am. J. Physiol. Lung Cell Mol. Physiol. (2003) 285: L730-L739 to approximately 85% confluence before harvesting for transfection. After trypsinisation and recovery by centrifugation, cells are resuspended at a density of 16.5×10^4 cells per ml in DIFF-AB medium containing siRNA duplex (10 nM) and Lipofectamine 2000™ (1 μl per ml) and seeded onto 12 well Transwell Clear inserts. One ml of HBEC/DIFF-AB medium/siRNA/lipofectamine 2000™ mix is deposited onto each insert and 1 ml of DIFF-AB medium is added to the basolateral chamber of each insert. After 24 hours (day 1 of submerged culture), all media is aspirated (apically and basolaterally) and replaced with 0.5 ml apically and 1 ml basolaterally of DIFF-AB medium containing 50 μg per ml gentamycin but no amphotericin B (DIFF-AB+G). On day 3, DIFF-AB+G medium is aspirated from the apical and basolateral surfaces and HBECs are cultured at ALI with DIFF-AB+G medium containing 1 ng per ml IL13. All cells are incubated at 37° C., 5% CO2 and 95% relative humidity. The basolateral medium is aspirated at days 5 and 7 and replaced with 1 ml DIFF-AB+G medium containing IL13. In addition the apical surface is rinsed with 0.5 ml phosphate buffered saline (PBS) to remove accumulated cell debris/mucus. Cells are harvested for total RNA extraction at days 3, 5, 7 and 9 as described above, and for goblet cell analysis by histology at day 9. For histology, inserts are fixed by the addition of 0.5 ml 10% neutral buffered formalin (NBF) to the apical surface followed by 1 ml NBF to the basolateral surface. After 24 hours of fixation the inserts are bisected and processed to RALwax through graded industrial methylated spirit (IMS) and chloroform. Both halves of the insert are embedded on edge using fresh RALwax. The paraffin blocks are sectioned at […] and stained with 45M1 antibody (an anti-MUCSAC antibody obtained from Lab-Vision Neomarkers) and alcian blue/haematoxylin and eosin (AB/H&E) according to standard histological protocols to enable detection of mucin and discrimination of individual cells by nuclear staining. The stained slides are examined microscopically.
[…] The effect on goblet cell formation is examined histologically by 45M1 and AB/PAS staining per unit length of epithelium.
A modest effect at 10 μM is seen, with no effect at 0.1 and 1 μM.

[2] = tested on: mucus secretion in differentiated HBECs; assay: ATP-γS-induced mucin secretion in differentiated HBECs, enzyme-linked lectin assay (ELLA); format: cell-based, human
Description: The effect of siRNA knockdown of CTSC expression on mucin secretion in differentiated HBECs is examined using the CTSC SMARTPOOL at different concentrations (0.3-10 nM). Adenosine triphosphate is used as a mucin secretagogue and secreted mucin is measured using an enzyme-linked lectin assay (ELLA; Kemp, Sugar and Jackson Am. J. Respir. Cell Mol. Biol. (2004) 31: 446-455). HBECs (16.5×10^4 cells per insert from donor 2F1S78) are transfected and cultured using the 9 day differentiation model as described in Example 2. At day 9 (6 days ALI) HBEC inserts are exposed to 100 μM ATP-γS for 10 minutes and supernatants are removed for analysis by ELLA. ATP-γS-induced mucus secretion is inhibited at all CTSC siRNA SMARTPOOL concentrations, but is unaffected by either cyclophilin B siRNA or Lipofectamine alone.
The effect of Compound A on mucus secretion in the 9 day model is examined by adding the compound at various concentrations (0.1-10 μM) to the apical surface in minimal medium containing 0.1% dimethyl sulphoxide (DMSO) and incubating for 30 minutes at 37° C., followed by 10 minutes exposure to 100 μM ATP-γS.

- mucus secretion (in words) ([2]; Compound A 0.1-10 μM, 100 μM ATP-γS): dose-dependently inhibits
SMILES: CCCS(=O)(=O)Nc1ccc(Cc2cc3cnc(C#N)nc3n2CC(C)(C)C)cc1 [Compound A, propane-1-sulfonic acid {4-[2-cyano-7-(2,2-dimethyl-propyl)-7H-pyrrolo[2,3-d]pyrimidin-6-ylmethyl]-phenyl}-amide]
- 45M1 and AB/PAS staining per unit length of epithelium ([1]; Table 6, 9 day model (6 days ALI), 0.1 uM + IL13): no effect
- 45M1 and AB/PAS staining per unit length of epithelium ([1]; Table 6, 9 day model (6 days ALI), 0.1 uM + IL13, listed as Compd A): 2.533
- 45M1 and AB/PAS staining per unit length of epithelium ([1]; Table 6, 9 day model (6 days ALI), 1 uM + IL13): no effect
- 45M1 and AB/PAS staining per unit length of epithelium ([1]; Table 6, 9 day model (6 days ALI), 1 uM + IL13, listed as Compd A): 2.621
- 45M1 and AB/PAS staining per unit length of epithelium ([1]; Table 6, 9 day model (6 days ALI), 10 uM + IL13): modest effect
- 45M1 and AB/PAS staining per unit length of epithelium ([1]; Table 6, 9 day model (6 days ALI), 10 uM + IL13, listed as Compd A): 1.424
- 45M1 and AB/PAS staining per unit length of epithelium ([1]; Table 6, 9 day model (6 days ALI), 10 uM, no IL13): 0.300
- 45M1 and AB/PAS staining per unit length of epithelium ([1]; Table 7, 11 days at ALI, 0.1 uM + IL-13 1 ng/ml): 3.609
- 45M1 and AB/PAS staining per unit length of epithelium ([1]; Table 7, 11 days at ALI, 1 uM + IL-13 1 ng/ml): 3.700
- 45M1 and AB/PAS staining per unit length of epithelium ([1]; Table 7, 11 days at ALI, 10 uM + IL-13 1 ng/ml): greater inhibition
- 45M1 and AB/PAS staining per unit length of epithelium ([1]; Table 7, 11 days at ALI, 10 uM + IL-13 1 ng/ml, listed as Compd A): 0.886
- 45M1 and AB/PAS staining per unit length of epithelium ([1]; Table 7, 11 days at ALI, 10 uM, no IL-13): 0.153
- mucus secretion (Vehicle = 100.00) ([2]; Compd A (0.1 μM), 30 minutes, then 100 μM ATP-γS 10 minutes): 203.51
- mucus secretion (Vehicle = 100.00) ([2]; Compd A (10 μM) only, no ATP, 30 minutes apical, 9 day model): 88.99
- mucus secretion (Vehicle = 100.00) ([2]; Compd A (10 μM), first column so headed, 30 minutes, then 100 μM ATP-γS 10 minutes): 120.18
- mucus secretion (Vehicle = 100.00) ([2]; Compd A (10 μM), second column so headed, 30 minutes, then 100 μM ATP-γS 10 minutes): 177.02
